Measurements as given in ChEMBL document CHEMBL3885861, “Open TG-GATES”.

Species on record: Rattus norvegicus
Test: Open TG-GATES - Regimen: Daily Repeat
Type: toxicity, organism-based, Sprague-Dawley
Parameters: regimen Daily Repeat, gender Male, age 6 weeks
Settings: in vivo, po, route gavage; for gamma-GTP / ALP / AST / BUN / CRE / Ca / Cl / DBIL / GLC / IP / K / LDH / Na / PL / RALB / TBIL / TC / TG / TP: tissue Plasma; for APTT / Bas / Eos / Fbg / Hb / Ht / Lym / MCH / MCHC / MCV / Mono / Neu / PT / Plat / RBC / Ret / WBC: tissue Blood; for KIDNEY_L / KIDNEY_R / KIDNEY_TOTAL: tissue Kidney; for LIVER: tissue Liver
[1] = 300 mg/kg, 72 h, dose level Middle, time 3 day
[2] = 300 mg/kg, […], dose level Middle, time 7 day
[3] = 300 mg/kg, […], dose level Middle, time 14 day
[4] = 300 mg/kg, […], dose level Middle, time 28 day

Compound: COc1ccc2[nH]c([S+]([O-])Cc3ncc(C)c(OC)c3C)nc2c1 (centres undefined) [OMEPRAZOLE]
- gamma-GTP (100 mg/kg, […], dose level Low, time 28 day): 0.8 IU/L
- APTT [1]: 19.8 s
- Bas [1]: 0%
- Eos [1]: 0.8%
- Fbg [1]: 223 mg/dL
- Hb [1]: 13 g/dL
- Ht [1]: 37.9%
- Lym [1]: 81%
- MCH [1]: 20.9 pg
- MCHC [1]: 34.3%
- MCV [1]: 60.9 fL
- Mono [1]: 3.6%
- Neu [1]: 14%
- PT [1]: 12.2 s
- Plat [1]: 135 x10_4/uL
- RBC [1]: 623 x10_4/ul
- Ret [1]: 4.2%
- WBC [1]: 94 x10_2/uL
- KIDNEY_L [1]: 1 g
- KIDNEY_R [1]: 1 g
- KIDNEY_TOTAL [1]: 2.1 g
- LIVER [1]: 12.8 g
- ALP [1]: 925.8 IU/L
- AST [1]: 61.4 IU/L
- BUN [1]: 14.8 mg/dL
- CRE [1]: 0.4 mg/dL
- Ca [1]: 10.5 mg/dL
- Cl [1]: 100.8 meq/L
- DBIL [1]: 0.058 mg/dL
- GLC [1]: 220.6 mg/dL
- IP [1]: 8.9 mg/dL
- K [1]: 3.9 meq/L
- LDH [1]: 184.6 IU/L
- Na [1]: 139.8 meq/L
- PL [1]: 175.8 mg/dL
- RALB [1]: 3.4 g/dL
- TBIL [1]: 0.1 mg/dL
- TC [1]: 101.2 mg/dL
- TG [1]: 85 mg/dL
- TP [1]: 5.6 g/dL
- gamma-GTP [1]: 1 IU/L
- TERMINAL_BW [2]: 269.3 g
- TERMINAL_BW [3]: 314.9 g
- TERMINAL_BW [4]: 384.1 g
- APTT [2]: 21.7 s
- Bas [2]: 0%
- Eos [2]: 1%
- Fbg [2]: 216.8 mg/dL
- Hb [2]: 13.4 g/dL
- Ht [2]: 39.5%
- Lym [2]: 78.8%
- MCH [2]: 20.6 pg
- MCHC [2]: 33.9%
- MCV [2]: 60.8 fL
- Mono [2]: 3%
- Neu [2]: 17.4%
- PT [2]: 12 s
- Plat [2]: 156.8 x10_4/uL
- RBC [2]: 649.8 x10_4/ul
- Ret [2]: 4.9%
- WBC [2]: 98.4 x10_2/uL
- APTT [3]: 20.3 s
- Bas [3]: 0%
- Eos [3]: 0.8%
- Fbg [3]: 211.4 mg/dL
- Hb [3]: 13.6 g/dL
- Ht [3]: 39.2%
- Lym [3]: 83.8%
- MCH [3]: 20 pg
- MCHC [3]: 34.6%
- MCV [3]: 57.6 fL
- Mono [3]: 2.8%
- Neu [3]: 11.4%
- PT [3]: 12.2 s
- Plat [3]: 128.3 x10_4/uL
- RBC [3]: 681.4 x10_4/ul
- Ret [3]: 4.2%
- WBC [3]: 96 x10_2/uL
- APTT [4]: 21.8 s
- Bas [4]: 0%
- Eos [4]: 0.8%
- Fbg [4]: 203 mg/dL
- Hb [4]: 14.5 g/dL
- Ht [4]: 42.2%
- Lym [4]: 80.4%
- MCH [4]: 18.7 pg
- MCHC [4]: 34.3%
- MCV [4]: 54.6 fL
- Mono [4]: 2.4%
- Neu [4]: 15.6%
- PT [4]: 12.4 s
- Plat [4]: 119.7 x10_4/uL
- RBC [4]: 773.8 x10_4/ul
- Ret [4]: 2.7%
- WBC [4]: 105.1 x10_2/uL
- KIDNEY_L [2]: 1.1 g
- KIDNEY_R [2]: 1.1 g
- KIDNEY_TOTAL [2]: 2.2 g
- KIDNEY_L [3]: 1.3 g
- KIDNEY_R [3]: 1.3 g
- KIDNEY_TOTAL [3]: 2.5 g
- KIDNEY_L [4]: 1.4 g
- KIDNEY_R [4]: 1.4 g
- KIDNEY_TOTAL [4]: 2.9 g
- LIVER [2]: 14.5 g
- LIVER [3]: 15.7 g
- LIVER [4]: 18.2 g
- ALP [2]: 924.4 IU/L
- AST [2]: 63.8 IU/L
- BUN [2]: 17.2 mg/dL
- CRE [2]: 0.4 mg/dL
- Ca [2]: 10.8 mg/dL
- Cl [2]: 101.2 meq/L
- DBIL [2]: 0.086 mg/dL
- GLC [2]: 208.6 mg/dL
- IP [2]: 8.8 mg/dL
- K [2]: 3.8 meq/L
- LDH [2]: 248.4 IU/L
- Na [2]: 140.8 meq/L
- PL [2]: 173.8 mg/dL
- RALB [2]: 3.4 g/dL
- TBIL [2]: 0.1 mg/dL
- TC [2]: 89 mg/dL
- TG [2]: 124.8 mg/dL
- TP [2]: 5.8 g/dL
- gamma-GTP [2]: 1 IU/L
- ALP [3]: 808.4 IU/L
- AST [3]: 62 IU/L
- BUN [3]: 17.2 mg/dL
- CRE [3]: 0.5 mg/dL
- Ca [3]: 10.5 mg/dL
- Cl [3]: 101.6 meq/L
- DBIL [3]: 0.066 mg/dL
- GLC [3]: 205.4 mg/dL
- IP [3]: 8.3 mg/dL
- K [3]: 3.9 meq/L
- LDH [3]: 198 IU/L
- Na [3]: 141.4 meq/L
- PL [3]: 162.6 mg/dL
- RALB [3]: 3.6 g/dL
- TBIL [3]: 0.1 mg/dL
- TC [3]: 84.4 mg/dL
- TG [3]: 78.4 mg/dL
- TP [3]: 6 g/dL
- gamma-GTP [3]: 0.8 IU/L
- ALP [4]: 521.6 IU/L
- AST [4]: 56.2 IU/L
- BUN [4]: 15.6 mg/dL
- CRE [4]: 0.5 mg/dL
- Ca [4]: 10.3 mg/dL
- Cl [4]: 101.6 meq/L
- DBIL [4]: 0.062 mg/dL
- GLC [4]: 221.8 mg/dL
- IP [4]: 7.3 mg/dL
- K [4]: 3.7 meq/L
- LDH [4]: 135 IU/L
- Na [4]: 141.6 meq/L
- PL [4]: 134.8 mg/dL
- RALB [4]: 3.5 g/dL
- TBIL [4]: 0.1 mg/dL
- TC [4]: 70 mg/dL
- TG [4]: 66 mg/dL
- TP [4]: 6.1 g/dL
- gamma-GTP [4]: 1 IU/L
